IC50, EC50 and AC50 data for nine compounds are collected here from ChEMBL document CHEMBL1201862, “PubChem BioAssay data set” (2004).

One assay has as its target T1, Bcl-2-related protein A1 (Mus musculus, UniProt Q07440).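 Further: confirmatory dose–response counterscreen on Bfl-1, used to check hits from a UBC13 polyubiquitin inhibitor campaign.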
T1 sequence (Q07440 whole entry): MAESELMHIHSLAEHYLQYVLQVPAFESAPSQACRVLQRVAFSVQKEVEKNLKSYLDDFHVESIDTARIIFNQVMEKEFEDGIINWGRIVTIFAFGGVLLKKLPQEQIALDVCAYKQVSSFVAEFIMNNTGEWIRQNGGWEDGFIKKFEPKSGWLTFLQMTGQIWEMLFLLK
The assay is classed as functional.

For assay [1], the target named is T2, Ubiquitin-conjugating enzyme E2 N (Homo sapiens, UniProt P61088).
T2 sequence (P61088 whole entry): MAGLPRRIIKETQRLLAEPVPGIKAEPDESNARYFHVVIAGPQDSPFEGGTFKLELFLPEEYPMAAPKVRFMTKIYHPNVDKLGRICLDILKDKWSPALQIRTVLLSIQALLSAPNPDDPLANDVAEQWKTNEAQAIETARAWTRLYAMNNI
It counts as functional.

The target in assay [2] is T2, Ubiquitin-conjugating enzyme E2 N. The assay is classed as functional. This is another data set of the same source.
Assay [3] has as its target Glyceraldehyde-3-phosphate dehydrogenase (Homo sapiens, UniProt P04406).
For assay [4], the target named is T3, Alkaline phosphatase, tissue-nonspecific isozyme (Homo sapiens, UniProt P05186).
T3 sequence (P05186 whole entry): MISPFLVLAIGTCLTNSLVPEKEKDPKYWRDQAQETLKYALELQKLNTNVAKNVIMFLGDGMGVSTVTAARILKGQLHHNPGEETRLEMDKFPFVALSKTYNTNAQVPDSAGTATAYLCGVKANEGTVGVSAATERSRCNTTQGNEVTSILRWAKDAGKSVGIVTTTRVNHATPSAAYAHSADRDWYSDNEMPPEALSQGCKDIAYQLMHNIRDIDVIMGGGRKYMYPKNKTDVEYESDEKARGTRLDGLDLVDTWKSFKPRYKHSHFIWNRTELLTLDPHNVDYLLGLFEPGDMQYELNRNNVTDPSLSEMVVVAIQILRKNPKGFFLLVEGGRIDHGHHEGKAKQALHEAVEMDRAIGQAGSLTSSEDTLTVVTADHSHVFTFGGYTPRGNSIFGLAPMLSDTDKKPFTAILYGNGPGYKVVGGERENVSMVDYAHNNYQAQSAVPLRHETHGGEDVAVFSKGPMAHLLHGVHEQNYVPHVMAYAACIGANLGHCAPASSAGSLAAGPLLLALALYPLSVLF
Put plainly: potency against alkaline phosphatase TNAP – biochemical, luminescent, dose response, SAR follow-up (AID 1056).

Assay [5] deals with T4, Voltage-gated N-type calcium channel alpha-1B subunit/Amyloid beta A4 precursor protein-binding family A member 1 (Homo sapiens, UniProt Q00975+Q02410). It counts as protein assay.
T4 sequence (Q00975 whole entry): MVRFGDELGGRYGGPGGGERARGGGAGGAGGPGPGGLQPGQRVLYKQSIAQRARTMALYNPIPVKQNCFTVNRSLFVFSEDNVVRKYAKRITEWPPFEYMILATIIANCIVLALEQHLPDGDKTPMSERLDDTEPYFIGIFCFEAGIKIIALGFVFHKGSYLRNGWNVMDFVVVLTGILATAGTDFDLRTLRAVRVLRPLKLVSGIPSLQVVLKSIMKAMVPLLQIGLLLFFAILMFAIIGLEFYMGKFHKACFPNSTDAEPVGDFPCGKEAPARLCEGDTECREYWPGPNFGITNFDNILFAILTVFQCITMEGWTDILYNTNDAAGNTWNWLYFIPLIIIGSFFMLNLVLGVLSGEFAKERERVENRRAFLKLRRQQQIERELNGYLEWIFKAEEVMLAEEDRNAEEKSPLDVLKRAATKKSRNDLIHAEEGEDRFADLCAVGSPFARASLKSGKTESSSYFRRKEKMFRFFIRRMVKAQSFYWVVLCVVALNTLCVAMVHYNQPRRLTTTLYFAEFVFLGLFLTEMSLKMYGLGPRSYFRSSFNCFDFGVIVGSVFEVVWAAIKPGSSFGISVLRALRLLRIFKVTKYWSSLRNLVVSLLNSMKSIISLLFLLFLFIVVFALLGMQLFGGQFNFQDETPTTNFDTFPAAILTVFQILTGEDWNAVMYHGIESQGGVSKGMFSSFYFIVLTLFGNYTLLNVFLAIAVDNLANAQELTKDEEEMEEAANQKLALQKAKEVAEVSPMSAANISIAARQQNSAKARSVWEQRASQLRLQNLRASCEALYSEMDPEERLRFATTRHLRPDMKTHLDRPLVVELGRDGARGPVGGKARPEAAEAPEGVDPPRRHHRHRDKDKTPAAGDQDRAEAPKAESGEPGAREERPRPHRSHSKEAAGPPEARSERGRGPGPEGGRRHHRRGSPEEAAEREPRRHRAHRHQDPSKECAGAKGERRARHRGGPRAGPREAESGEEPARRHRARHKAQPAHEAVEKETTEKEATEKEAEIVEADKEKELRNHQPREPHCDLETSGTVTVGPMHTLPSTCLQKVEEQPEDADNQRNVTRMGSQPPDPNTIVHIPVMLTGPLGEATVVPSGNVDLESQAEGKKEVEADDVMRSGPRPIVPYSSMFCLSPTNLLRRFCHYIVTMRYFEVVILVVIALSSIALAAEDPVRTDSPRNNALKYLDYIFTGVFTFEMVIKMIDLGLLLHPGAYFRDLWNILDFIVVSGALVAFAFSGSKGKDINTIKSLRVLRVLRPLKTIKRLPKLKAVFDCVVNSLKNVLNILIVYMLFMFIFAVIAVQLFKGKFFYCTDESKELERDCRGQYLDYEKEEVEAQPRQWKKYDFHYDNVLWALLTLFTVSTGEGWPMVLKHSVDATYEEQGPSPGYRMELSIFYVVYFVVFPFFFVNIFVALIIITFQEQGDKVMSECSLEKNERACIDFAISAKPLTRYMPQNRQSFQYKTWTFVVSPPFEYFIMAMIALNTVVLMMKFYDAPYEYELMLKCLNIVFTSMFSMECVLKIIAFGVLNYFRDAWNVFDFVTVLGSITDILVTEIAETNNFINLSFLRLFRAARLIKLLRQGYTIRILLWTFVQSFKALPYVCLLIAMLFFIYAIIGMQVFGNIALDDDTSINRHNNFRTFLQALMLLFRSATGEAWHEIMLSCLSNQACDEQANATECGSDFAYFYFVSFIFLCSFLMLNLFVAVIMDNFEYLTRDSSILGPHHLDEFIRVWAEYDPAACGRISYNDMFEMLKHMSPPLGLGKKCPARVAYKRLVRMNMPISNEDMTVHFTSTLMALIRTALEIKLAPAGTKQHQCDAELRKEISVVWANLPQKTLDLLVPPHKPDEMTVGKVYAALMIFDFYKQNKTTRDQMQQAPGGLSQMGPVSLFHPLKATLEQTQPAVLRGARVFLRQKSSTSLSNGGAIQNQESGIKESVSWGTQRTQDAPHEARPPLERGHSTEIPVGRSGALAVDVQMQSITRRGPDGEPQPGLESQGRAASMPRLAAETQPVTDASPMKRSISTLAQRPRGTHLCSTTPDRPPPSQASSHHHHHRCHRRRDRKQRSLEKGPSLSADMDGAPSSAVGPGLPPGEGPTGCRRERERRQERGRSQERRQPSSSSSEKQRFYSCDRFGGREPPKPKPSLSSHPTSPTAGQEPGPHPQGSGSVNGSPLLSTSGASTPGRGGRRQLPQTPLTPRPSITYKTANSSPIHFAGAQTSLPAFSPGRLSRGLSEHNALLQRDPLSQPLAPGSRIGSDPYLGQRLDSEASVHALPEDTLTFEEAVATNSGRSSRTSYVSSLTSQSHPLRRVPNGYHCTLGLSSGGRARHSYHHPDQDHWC
T4 sequence (Q02410 whole entry): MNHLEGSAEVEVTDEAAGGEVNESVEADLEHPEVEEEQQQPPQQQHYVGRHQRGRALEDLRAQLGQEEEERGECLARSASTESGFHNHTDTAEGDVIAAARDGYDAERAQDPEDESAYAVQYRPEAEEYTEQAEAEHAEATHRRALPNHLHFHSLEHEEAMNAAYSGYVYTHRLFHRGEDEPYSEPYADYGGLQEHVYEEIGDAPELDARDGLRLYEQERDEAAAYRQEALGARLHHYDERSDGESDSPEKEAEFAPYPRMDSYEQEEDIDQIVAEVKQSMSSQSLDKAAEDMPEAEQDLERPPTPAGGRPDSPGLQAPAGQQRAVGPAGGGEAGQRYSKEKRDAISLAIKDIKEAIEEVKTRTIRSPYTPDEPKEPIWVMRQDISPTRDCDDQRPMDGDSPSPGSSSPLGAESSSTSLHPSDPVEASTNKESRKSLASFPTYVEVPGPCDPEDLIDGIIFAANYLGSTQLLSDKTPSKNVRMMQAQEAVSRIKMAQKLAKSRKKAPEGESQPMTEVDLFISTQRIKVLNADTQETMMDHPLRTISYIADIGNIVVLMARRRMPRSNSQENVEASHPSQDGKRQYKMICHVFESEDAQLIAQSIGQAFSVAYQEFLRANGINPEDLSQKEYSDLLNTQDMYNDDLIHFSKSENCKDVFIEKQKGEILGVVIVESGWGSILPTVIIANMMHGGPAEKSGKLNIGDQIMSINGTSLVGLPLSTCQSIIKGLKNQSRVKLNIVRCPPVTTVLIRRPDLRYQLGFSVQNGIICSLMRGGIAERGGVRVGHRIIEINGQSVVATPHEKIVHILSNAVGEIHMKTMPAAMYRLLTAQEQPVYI
Assay [6] concerns the target T4, Voltage-gated N-type calcium channel alpha-1B subunit/Amyloid beta A4 precursor protein-binding family A member 1. It counts as protein assay. This is another data set of the same source.
The nature of assay [7]: viability of PTEN-deleted HCT116 cells – cell-based, HCT116 PTEN knockout, dose response (AID 1047).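 Further: HCT116 colon tumor cells with PTEN knocked out; cells exposed to compound for 60 hours before readout; potency for loss of cell viability measured by luminescence.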 The assay is classed as functional.
Assay [8] is described as follows: viability of HCT116 lacking mutant beta-catenin – cell-based, human colon tumor, dose response (AID 1045).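 Further: HCT116 colon tumor cells with beta catenin knocked out; cells exposed to compound for 60 hours.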 The assay is classed as functional.
The target of assay [9] is Glucose-6-phosphate 1-dehydrogenase (Homo sapiens, UniProt P11413). Description: inhibition of Homo sapiens G6PD, dose series – biochemical, fluorescence, selectivity assay for P. falciparum G6PD inhibitor project, dose response (AID 504792). The assay is classed as functional.
Glucose-6-phosphate 1-dehydrogenase, sequence (P11413 whole entry): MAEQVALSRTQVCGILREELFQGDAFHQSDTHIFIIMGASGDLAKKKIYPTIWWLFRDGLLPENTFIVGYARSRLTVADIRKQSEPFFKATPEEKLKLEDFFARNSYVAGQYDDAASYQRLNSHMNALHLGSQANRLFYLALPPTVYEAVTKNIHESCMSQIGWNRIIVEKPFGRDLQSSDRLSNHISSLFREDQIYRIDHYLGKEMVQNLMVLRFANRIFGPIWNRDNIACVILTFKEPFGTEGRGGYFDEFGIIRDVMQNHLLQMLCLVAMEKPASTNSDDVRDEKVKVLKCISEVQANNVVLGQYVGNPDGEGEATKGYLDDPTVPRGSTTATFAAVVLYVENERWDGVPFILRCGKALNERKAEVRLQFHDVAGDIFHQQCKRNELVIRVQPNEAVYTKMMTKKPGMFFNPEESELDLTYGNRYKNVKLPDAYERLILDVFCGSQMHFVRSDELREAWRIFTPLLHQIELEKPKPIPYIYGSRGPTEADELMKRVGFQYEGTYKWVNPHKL
Assay [10] deals with DNA dC->dU-editing enzyme APOBEC-3G (Homo sapiens, UniProt Q9HC16). Description: Dose Response confirmation of small molecule APOBEC3G DNA Deaminase Inhibitors via a fluorescence-based single-stranded DNA deaminase assay. [Related pubchem assays (depositor defined):AID493012, AID493028]. It counts as functional.
DNA dC->dU-editing enzyme APOBEC-3G, sequence (Q9HC16 whole entry): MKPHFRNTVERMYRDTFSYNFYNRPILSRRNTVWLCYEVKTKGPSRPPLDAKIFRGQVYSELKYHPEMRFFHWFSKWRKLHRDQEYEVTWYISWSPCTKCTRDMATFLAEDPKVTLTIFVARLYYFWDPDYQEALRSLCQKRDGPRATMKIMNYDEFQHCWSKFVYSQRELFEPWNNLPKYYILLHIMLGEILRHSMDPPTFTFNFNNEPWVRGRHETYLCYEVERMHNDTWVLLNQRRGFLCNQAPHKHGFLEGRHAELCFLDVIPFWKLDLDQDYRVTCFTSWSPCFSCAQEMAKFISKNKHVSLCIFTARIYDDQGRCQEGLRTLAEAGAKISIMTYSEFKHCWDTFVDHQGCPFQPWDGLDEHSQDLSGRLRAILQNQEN
Assay [11] in a line: reduction of Shn3 3'UTR-driven luciferase in osteoblasts – cell-based, Clone20 osteoblasts, firefly luciferase, cherry-picked, dose response (AID 624132).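 Further: firefly luciferase luminescence from reporter carrying the Shn3 3'UTR in osteoblasts.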 It counts as functional.
Assay [12] can be described thus: loss of viability in HepG2 cells – cell-based, CellTiter-Glo, cherry-picked, cytotoxicity control for Shn3 inhibitor project, dose response (AID 624134). The assay is classed as functional. For orientation: In ATP-based viability assays light output follows the ATP content of the culture.
The nature of assay [13]: non-specific 3'UTR reporter inhibition in Clone20-Shn3RL – cell-based, Renilla luciferase, cherry-picked, counter-screen for Shn3 inhibitor project, dose response (AID 624133). The assay is classed as functional.

The source made the active and inactive calls. For most assays here, no stated cut-off is given here; in the data, actives have a measured IC50 and inactives only a lower limit.

Glyceraldehyde-3-phosphate dehydrogenase, sequence (P04406 whole entry): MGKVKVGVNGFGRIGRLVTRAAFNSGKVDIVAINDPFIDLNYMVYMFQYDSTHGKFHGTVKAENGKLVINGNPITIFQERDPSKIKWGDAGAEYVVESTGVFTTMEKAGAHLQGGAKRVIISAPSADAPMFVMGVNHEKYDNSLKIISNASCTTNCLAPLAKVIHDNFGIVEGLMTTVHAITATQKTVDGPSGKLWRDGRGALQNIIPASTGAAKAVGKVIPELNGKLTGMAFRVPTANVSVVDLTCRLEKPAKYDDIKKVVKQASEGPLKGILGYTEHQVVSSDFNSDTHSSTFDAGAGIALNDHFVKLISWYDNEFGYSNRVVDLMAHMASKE

What is called IC50 is the midpoint of a concentration-inhibition curve. For the compound `C#CCOCCOCCOCCNc1nc(N2CCN(C(=O)C([C@@H](C)O)n3cc([C@@H](N)CCCCN)nn3)CC2)nc(N2CCN(C(=O)[C@H](CCCN=C(N)N)n3cc(C(N)[C@@H](C)CC)nn3)CC2)n1` (stereo partly drawn), the IC50 is > 20 µM (inactive) on Bcl-2-related protein A1, 12.1 µM (active) in assay [1] and 7.99 µM (active) in assay [2].
On to `COc1ccc(NS(=O)(=O)c2cc(C(=O)N3CCC3)ccc2C)cc1`, for which the IC50 on Bcl-2-related protein A1 is > 20 µM (inactive); in assay [1], 19.8 µM (active); in assay [2], > 20 µM (inactive).
For the compound `CC(C)CC(C(=O)NC(C)(C)C)N(Cc1ccccc1Cl)C(=O)c1snc(C(N)=O)c1N` (stereo not drawn), the IC50 is > 20 µM (inactive) at Bcl-2-related protein A1, 14.5 µM (active) in assay [1] and 12.5 µM (active) in assay [2].
As to `NNC(=O)c1cc(-c2ccc(F)cc2F)[nH]n1`, the results for the IC50 in assay [3] and in assay [4] were > 10 µM (inconclusive) and 0.12 µM (active), respectively.
Consider `O=C1C2CCCCC2C(=O)N1c1nc(CCc2ccccc2)n[nH]1` (stereo not drawn), for which the IC50 in assay [3] is > 100 µM (not active); in assay [4], > 100 µM (inactive).
For `COc1ccccc1NS(=O)(=O)c1ccc(OC)c2ncccc12`, in that order: > 100 µM (not active) and > 100 µM (inactive).
What is called EC50 is the concentration at which the effect is half-maximal. What is called AC50 is the midpoint of the concentration-response curve, whichever way the signal moves. Regarding `CCOC(=O)C1CCCN(C(=O)Cn2sc3nc(C)cc(C)c3c2=O)C1` (stereo not drawn), the IC50 in [5] was 12.6 µM (active); in assay [6], > 50 µM (inactive); in assay [9] it was 47.1 µM (inactive); in assay [10] it was 6.17 µM (active). For the same compound, the EC50 in [7] is 25.9 µM (active); in [8] it was 21.6 µM (active). For the same compound, the AC50 in assay [11] was 12.5 µM (active); in assay [12], > 70 µM (inactive); in [13], 7.5 µM (active).
In the case of `CCOc1cc(C)ccc1S(=O)(=O)Nc1cccnc1`, the values for the IC50 in [3] and in assay [4] were > 100 µM (not active) and > 100 µM (inactive), respectively.
The matching figures for `CCOC(=O)c1cc(-c2cccc(C(F)(F)F)c2)n[nH]1`: > 100 µM (not active) and > 100 µM (inactive).
